What was measured:
[1] = Cytotoxicity against human HaCaT cells assessed as cell viability at 1 to 10 uM incubated for 24 hrs followed by H2O2 stimulation by celltiter-glo assay relative to control; type: cell-based; settings: dose 1-10 µM, read-out: Activity
[2] = system: HaCaT; assay: Cytoprotective activity against H2O2-induced oxidative stress in human HaCaT cells assessed as increase in cell viability at 10 uM incubated for 24 hrs followed by H2O2 stimulation by celltiter-glo assay relative to control; type: functional
[3] = system: HaCaT; assay: Effect on cell cycle distribution in human HaCaT cells assessed as <2N cells at 10 uM pretreated for 6 hrs followed by H2O2 challenge for 24 hrs by propidium iodide staining based flow cytometry analysis (Rvb= 1.88%); type: functional; settings: time 30 hrs
[4] = system: HaCaT; assay: Effect on cell cycle distribution in human HaCaT cells assessed as 2N cells at 10 uM pretreated for 6 hrs followed by H2O2 challenge for 24 hrs by propidium iodide staining based flow cytometry analysis (Rvb= 17.9%); type: functional; settings: time 30 hrs
[5] = system: HaCaT; assay: Effect on cell cycle distribution in human HaCaT cells assessed as 4N cells at 10 uM pretreated for 6 hrs followed by H2O2 challenge for 24 hrs by propidium iodide staining based flow cytometry analysis (Rvb= 41.0%); type: functional; settings: time 30 hrs
[6] = system: HaCaT; assay: Effect on cell cycle distribution in human HaCaT cells assessed as >4N cells at 10 uMpretreated for 6 hrs followed by H2O2 challenge for 24 hrs by propidium iodide staining based flow cytometry analysis (Rvb= 11.1%); type: functional; settings: dose 10 µM; time 30 hrs
[7] = system: HaCaT; assay: Effect on cell cycle distribution in human HaCaT cells assessed as accumulation of cells in G2-M phase at 10 uM pretreated for 6 hrs followed by H2O2 challenge for 24 hrs by propidium iodide staining based flow cytometry analysis relative to control; type: functional; settings: time 30 hrs
[8] = system: HaCaT; assay: Cytoprotective activity against H2O2-induced oxidative stress in human HaCaT cells assessed as change in cellular ROS level at 1 uM incubated for 6 hrs followed by H2O2 stimulation measured after 24 hrs by DCF-DA dye based fluorescence analysis (reference value: 8.2); type: functional; settings: time 30 hrs
[9] = system: HaCaT; assay: Cytoprotective activity against H2O2-induced oxidative stress in human HaCaT cells assessed as change in cellular ROS level at 10 uM incubated for 6 hrs followed by H2O2 stimulation measured after 24 hrs by DCF-DA dye based fluorescence analysis (reference value: 8.2); type: functional; settings: time 30 hrs
[10] = system: HaCaT; assay: Antioxidant activity in human HaCaT cells assessed as reduction in mean fluorescence intensity at 10 uM preincubated for 6 hrs followed by H2O2 stimulation at 200 uM measured after 24 hrs by cellROS staining based flow cytometry analysis; type: functional; settings: time 30 hrs
[11] = system: HaCaT; assay: Antioxidant activity in human HaCaT cells assessed as reduction in mean fluorescence intensity at 10 uM preincubated for 6 hrs followed by H2O2 stimulation at 400 uM measured after 24 hrs by cellROS staining based flow cytometry analysis; type: functional; settings: time 30 hrs
[12] = system: HaCaT; assay: Antioxidant activity in human HaCaT cells assessed as reduction in mean fluorescence intensity at 10 uM preincubated for 6 hrs followed by H2O2 stimulation at 600 uM measured after 24 hrs by cellROS staining based flow cytometry analysis; type: functional; settings: time 30 hrs
[13] = system: HaCaT; assay: Antioxidant activity in human HaCaT cells assessed as reduction in mitochondria-derived ROS production by measuring mean fluorescence intensity at 10 uM preincubated for 6 hrs followed by H2O2 stimulation at 200 uM measured after 24 hrs by mitoSOX staining based flow cytometry analysis; type: functional; settings: time 30 hrs
[14] = system: HaCaT; assay: Antioxidant activity in human HaCaT cells assessed as reduction in mitochondria-derived ROS production by measuring mean fluorescence intensity at 10 uM preincubated for 6 hrs followed by H2O2 stimulation at 400 uM measured after 24 hrs by mitoSOX staining based flow cytometry analysis; type: functional; settings: time 30 hrs
[15] = system: HaCaT; assay: Antioxidant activity in human HaCaT cells assessed as reduction in mitochondria-derived ROS production by measuring mean fluorescence intensity at 10 uM preincubated for 6 hrs followed by H2O2 stimulation at 600 uM measured after 24 hrs by mitoSOX staining based flow cytometry analysis; type: functional; settings: time 30 hrs
[16] = Downregulation of caspase-1 mRNA expression in H2O2- stimulated human HaCaT cells at 10 uM incubated for 6 hrs by SPE based fluorescence amplification assay relative to control; type: functional; settings: time 30 hrs
[17] = Downregulation of IL-1beta mRNA expression in H2O2- stimulated human HaCaT cells at 10 uM incubated for 6 hrs by SPE based fluorescence amplification assay relative to control; type: functional; settings: time 30 hrs
[18] = molecular target: T1, Caspase-1 (Homo sapiens) (UniProt P29466); assay: Inhibition of caspase-1 activity in H2O2-stimulated human HaCaT cells assessed as reduction in enzyme activity at 10 uM using […] as a substrate measured after 2 hrs by colorimetric assay relative to control
T1 sequence (whole entry): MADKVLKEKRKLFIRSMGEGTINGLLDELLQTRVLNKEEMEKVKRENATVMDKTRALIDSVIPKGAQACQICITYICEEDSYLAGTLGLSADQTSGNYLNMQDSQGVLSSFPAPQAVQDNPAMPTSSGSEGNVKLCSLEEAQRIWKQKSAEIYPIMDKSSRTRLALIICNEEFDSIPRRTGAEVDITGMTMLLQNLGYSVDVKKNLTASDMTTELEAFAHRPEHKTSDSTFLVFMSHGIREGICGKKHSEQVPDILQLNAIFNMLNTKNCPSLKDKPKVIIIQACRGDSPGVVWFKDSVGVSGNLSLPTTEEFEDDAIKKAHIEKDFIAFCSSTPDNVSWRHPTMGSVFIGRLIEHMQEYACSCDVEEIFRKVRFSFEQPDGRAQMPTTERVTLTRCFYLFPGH

[19] = Inhibition of IL-1beta expression in H2O2- stimulated human HaCaT cells at 10 uM incubated for 6 hrs followed by H2O2 stimulation measured after 24 hrs by ELISA relative to control; type: functional; settings: time 30 hrs
[20] = system: HaCaT; assay: Anti-pyroptosis activity in human HaCaT cells assessed as reduction in H2O2-induced LDH production at 1 uM incubated for 6 hrs followed by H2O2 stimulation measured after 24 hrs by LDH assay relative to control; type: functional; parameters: scale not given: the % may be the effect or the level left; settings: time 30 hrs
[21] = system: HaCaT; assay: Anti-pyroptosis activity in human HaCaT cells assessed as reduction in H2O2-induced LDH production at 10 uM incubated for 6 hrs followed by H2O2 stimulation measured after 24 hrs by LDH assay relative to control; type: functional; parameters: scale not given: the % may be the effect or the level left; settings: time 30 hrs
[22] = system: HaCaT; assay: Antiapoptotic activity in human HaCaT cells assessed as reduction in apoptotic cells at 10 uM incubated for 6 hrs followed by H2O2 stimulation measured after 24 hrs by Mitotracker red/annexin V double staining based flow cytometry analysis (Rvb= 12.1%); type: functional; parameters: scale not given: the % may be the effect or the level left; settings: time 30 hrs
[23] = molecular target: T2, Caspase-1 (Homo sapiens, UniProt P29466); assay: Binding affinity to recombinant human caspase-1 assessed as dissociation constant measured after 90 sec by SPR method
T2 sequence (P29466 whole entry): T1 sequence (whole entry)

[24] = molecular target: T1, Caspase-1 (Homo sapiens); assay: Binding affinity to recombinant human caspase-1 assessed as association constant measured after 60 sec by SPR method
[25] = molecular target: T2, Caspase-1; assay: Binding affinity to recombinant human caspase-1 assessed as dissociation constant at equilibrium measured after 30 sec by SPR method

C=C(C)[C@@H]1CCC(C)=C[C@H]1c1c(O)cc(CCCCC)cc1O [CANNABIDIOL]
viability at 24 h, up to 10 µM [1]: > 90%
Activity [2]: 48.6%
Activity [3]: 1.81%
Activity [4]: 20.5%
Activity [5]: 45.9%
Activity [6]: 4.55%
Activity [7]: 16.7%
fold change (FC) [8]: 3.96
fold change (FC) [9]: 5.13
Flu intensity [10]: 110
Flu intensity [11]: 96
Flu intensity [12]: 171
Flu intensity [13]: 75
Flu intensity [14]: 78
Flu intensity [15]: 73
Activity [16]: 32.9%
Activity [17]: 50.9%
inhibition [18]: 15.7%
inhibition at 10 µM [19]: 16.2%
Activity [20]: 20.7%
Activity [21]: 23.6%
Activity [22]: 6.36%
Kd [23]: 0.0188 µM
Ka [24]: 416 M⁻¹ s⁻¹
Kd [25]: 0.078 s⁻¹

Source: ChEMBL document CHEMBL4840300 (J Nat Prod, 2021)
